Test results reported in patent US10087148B2, “Quinazolines as biogenic amine transport modulators” (THE UNITED STATES OF AMERICA AS REPRESENTED BY THE …, priority 2014, dated 2018).

Columns and labels:
[1] = target: T1, dopamine transporter (DAT) (Rattus norvegicus (Rat), UniProt P23977); assay: [3H]dopamine (DA) uptake inhibition in rat brain (caudate) synaptosomes; type: biochemical
[2] = target: serotonin transporter (SERT) (Rattus norvegicus (Rat), UniProt P31652); assay: [3H]serotonin (5-HT) uptake inhibition in rat brain synaptosomes; type: biochemical; settings: mean ± S.D.; n = 3; read-out: SERT Uptake Emax
Chain of serotonin transporter (SERT) (P31652 whole entry): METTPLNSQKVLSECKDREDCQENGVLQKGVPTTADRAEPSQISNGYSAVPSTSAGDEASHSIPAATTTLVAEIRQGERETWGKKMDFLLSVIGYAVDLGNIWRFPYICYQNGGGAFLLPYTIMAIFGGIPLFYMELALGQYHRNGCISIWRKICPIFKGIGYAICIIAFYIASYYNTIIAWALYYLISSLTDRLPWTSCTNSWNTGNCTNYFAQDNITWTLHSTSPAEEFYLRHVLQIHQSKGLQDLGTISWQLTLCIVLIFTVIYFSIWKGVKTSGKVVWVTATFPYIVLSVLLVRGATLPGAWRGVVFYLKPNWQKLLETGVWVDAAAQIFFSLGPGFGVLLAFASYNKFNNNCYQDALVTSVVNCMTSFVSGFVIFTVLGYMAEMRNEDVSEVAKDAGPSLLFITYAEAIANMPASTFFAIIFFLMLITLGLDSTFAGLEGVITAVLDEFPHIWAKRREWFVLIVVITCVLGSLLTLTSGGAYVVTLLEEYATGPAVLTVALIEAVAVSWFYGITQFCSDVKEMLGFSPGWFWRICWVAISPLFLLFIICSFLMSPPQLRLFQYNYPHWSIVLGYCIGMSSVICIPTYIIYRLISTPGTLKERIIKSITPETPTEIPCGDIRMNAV

[3] = target: norepinephrine transporter (NET) (Rattus norvegicus, UniProt Q63380); assay: [3H]norepinephrine (NE) uptake inhibition in rat brain synaptosomes; type: biochemical
Chain of norepinephrine transporter (NET) (Q63380 1-617): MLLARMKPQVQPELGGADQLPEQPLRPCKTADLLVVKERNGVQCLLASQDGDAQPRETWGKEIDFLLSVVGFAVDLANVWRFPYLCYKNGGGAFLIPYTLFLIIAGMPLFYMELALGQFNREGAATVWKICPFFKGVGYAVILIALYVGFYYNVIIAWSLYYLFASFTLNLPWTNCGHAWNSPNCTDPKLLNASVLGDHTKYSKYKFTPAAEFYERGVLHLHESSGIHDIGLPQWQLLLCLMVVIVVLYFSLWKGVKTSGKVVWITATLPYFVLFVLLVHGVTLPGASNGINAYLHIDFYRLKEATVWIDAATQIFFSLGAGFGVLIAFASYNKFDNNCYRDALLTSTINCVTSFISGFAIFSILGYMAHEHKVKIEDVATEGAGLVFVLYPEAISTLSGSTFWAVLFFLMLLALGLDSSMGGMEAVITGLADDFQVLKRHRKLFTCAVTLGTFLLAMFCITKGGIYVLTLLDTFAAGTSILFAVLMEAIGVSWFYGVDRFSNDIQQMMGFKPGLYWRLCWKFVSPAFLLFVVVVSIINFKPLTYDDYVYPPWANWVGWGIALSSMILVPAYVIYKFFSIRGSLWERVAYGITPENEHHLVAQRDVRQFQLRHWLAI

[4] = target: T1, dopamine transporter (DAT); assay: Dopamine transporter-mediated [3H]MPP+ release (d-amphetamine-induced, shift experiments) in rat caudate synaptosomes; type: biochemical
DAT [5] = target: T2, DAT (Rattus norvegicus (Rat), UniProt P23977); assay: Inhibition of [3H]WIN35428 binding to rat caudate DAT; settings: [3H]WIN35428
T2 sequence (P23977 whole entry): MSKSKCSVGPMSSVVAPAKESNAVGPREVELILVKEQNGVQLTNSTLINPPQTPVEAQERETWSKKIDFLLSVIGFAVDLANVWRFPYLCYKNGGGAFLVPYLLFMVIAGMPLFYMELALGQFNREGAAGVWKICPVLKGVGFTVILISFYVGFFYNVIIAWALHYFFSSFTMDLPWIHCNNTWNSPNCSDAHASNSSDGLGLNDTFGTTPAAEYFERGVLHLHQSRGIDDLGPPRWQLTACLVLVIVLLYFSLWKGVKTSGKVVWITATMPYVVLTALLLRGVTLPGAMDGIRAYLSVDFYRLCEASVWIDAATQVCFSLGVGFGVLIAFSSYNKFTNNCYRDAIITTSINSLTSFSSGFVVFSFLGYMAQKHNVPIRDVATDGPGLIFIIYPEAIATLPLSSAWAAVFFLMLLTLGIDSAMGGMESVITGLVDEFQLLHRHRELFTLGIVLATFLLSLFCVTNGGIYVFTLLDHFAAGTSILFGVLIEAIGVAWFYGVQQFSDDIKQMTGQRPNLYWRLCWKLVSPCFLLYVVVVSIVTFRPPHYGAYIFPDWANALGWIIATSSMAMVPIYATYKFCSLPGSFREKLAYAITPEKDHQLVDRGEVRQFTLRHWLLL
Method: All of the test compounds were synthesized as described herein. […] The data from three experiments were pooled and fit to a dose-response curve equation (using KaleidaGraph; Synergy Software, Reading, Pa.) to yield an Emax and IC50 value. […] Selected compounds were also tested for their ability to inhibit [^3H]WIN35428 binding to rat caudate DAT.

DAT [6] = target: T2, DAT; assay: d-amphetamine-induced, DAT-mediated [3H]DA release (shift experiments); type: biochemical

T1 sequence (P23977 whole entry): as above

c1ccc(C(CNc2nc(-c3ccc4nccn4c3)nc3ccccc23)c2ccccc2)cc1 [SRI-29574]
Efficacy of [3H]DA (DAT) uptake inhibition, in words [1]: partially inhibited
Emax ([1]; mean ± S.D., n = 3, read-out: DAT Uptake Emax): 68 ± 2%
Emax ([1]; values in Table 9, read-out: Emax for DAT Uptake Inhibition): 68%
Emax [2]: 52 ± 2%
Emax ([3]; read-out: NET Uptake Emax): 72 ± 4%
IC50 ([3]; read-out: NET Uptake IC50, mean ± S.D., n = 3): 52 ± 15 nM
Apparent Kc ([4]; [3H]MPP+ release, [Blocker]/((EC50-2/EC50-1) − 1)): -368 nM
Effect on d-amphetamine-induced DAT-mediated [3H]MPP+ release curve, in words ([4]; blocking concentration ~25 times DAT uptake IC50): increased EC50 and decreased Emax
Emax ([4]; read-out: d-Amphetamine Emax in presence of blocker, [3H]MPP+ release, blocker concentration per row, mean ± S.D., n = 3): 103 ± 3%
Inhibition of DAT binding, in words (DAT [5]): inactive
DAT Binding Emax (DAT [5]; mean ± S.D., n = 3): Inactive
DAT Binding IC50 (DAT [5]; mean ± S.D., n = 3, unit as printed in head (text gives 1100 nM where table prints 1.1)): Inactive
Apparent Kc (DAT [6]; [Blocker]/((EC50-2/EC50-1) − 1)): -239 nM
Emax (DAT [6]; read-out: d-Amphetamine Emax in presence of blocker, blocker concentration per row, mean ± S.D., n = 3): 95 ± 2%
